{
  "source": "ChEMBL document CHEMBL5465560",
  "about": "“Selectivity Literature for EUbOPEN Chemogenomic Library” (2024)",
  "key": {"[1]": {"molecular_target": "Cyclin-dependent kinase 3 (Homo sapiens) (UniProt Q00526)", "sequence (Q00526 whole entry, looked up)": "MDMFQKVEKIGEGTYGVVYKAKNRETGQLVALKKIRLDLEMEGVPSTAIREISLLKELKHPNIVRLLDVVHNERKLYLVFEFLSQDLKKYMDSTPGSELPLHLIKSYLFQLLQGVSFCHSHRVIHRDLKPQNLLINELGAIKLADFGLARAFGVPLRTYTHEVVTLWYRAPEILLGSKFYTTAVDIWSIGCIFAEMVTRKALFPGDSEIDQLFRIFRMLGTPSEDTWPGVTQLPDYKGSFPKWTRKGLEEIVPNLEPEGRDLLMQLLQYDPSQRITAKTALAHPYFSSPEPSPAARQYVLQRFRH", "assay": "Selectivity interaction (KinomeScan (DiscoverX)) EUB0001049a CDK3", "settings": "at 1 µM"}, "[2]": {"molecular_target": "Serine/threonine-protein kinase SIK1 (Homo sapiens) (UniProt P57059)", "sequence (P57059 whole entry)": "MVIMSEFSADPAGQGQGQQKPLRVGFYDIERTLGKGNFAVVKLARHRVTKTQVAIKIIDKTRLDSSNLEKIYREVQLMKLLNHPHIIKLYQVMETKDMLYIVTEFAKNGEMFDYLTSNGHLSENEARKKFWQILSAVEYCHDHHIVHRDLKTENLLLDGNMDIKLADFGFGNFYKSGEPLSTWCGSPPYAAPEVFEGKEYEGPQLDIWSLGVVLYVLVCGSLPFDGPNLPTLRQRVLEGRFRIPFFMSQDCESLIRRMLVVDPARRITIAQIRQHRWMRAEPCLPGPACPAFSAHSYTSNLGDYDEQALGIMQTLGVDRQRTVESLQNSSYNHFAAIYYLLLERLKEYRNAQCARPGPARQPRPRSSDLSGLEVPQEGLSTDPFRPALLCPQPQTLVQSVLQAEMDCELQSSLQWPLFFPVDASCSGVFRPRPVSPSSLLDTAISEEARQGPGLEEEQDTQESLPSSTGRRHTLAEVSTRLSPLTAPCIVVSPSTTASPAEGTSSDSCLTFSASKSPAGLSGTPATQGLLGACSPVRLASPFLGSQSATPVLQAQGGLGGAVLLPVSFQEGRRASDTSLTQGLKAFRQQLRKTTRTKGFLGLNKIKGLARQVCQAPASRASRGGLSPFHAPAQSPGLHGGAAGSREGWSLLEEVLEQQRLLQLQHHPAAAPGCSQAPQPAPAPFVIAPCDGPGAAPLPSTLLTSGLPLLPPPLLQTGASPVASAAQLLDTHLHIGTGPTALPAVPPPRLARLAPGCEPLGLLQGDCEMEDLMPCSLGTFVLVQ", "assay": "Selectivity interaction (KinomeScan (DiscoverX)) EUB0001049a SIK1", "settings": "at 1 µM"}, "[3]": {"molecular_target": "Receptor tyrosine-protein kinase erbB-3 (Homo sapiens) (UniProt P21860)", "sequence (P21860 whole entry)": "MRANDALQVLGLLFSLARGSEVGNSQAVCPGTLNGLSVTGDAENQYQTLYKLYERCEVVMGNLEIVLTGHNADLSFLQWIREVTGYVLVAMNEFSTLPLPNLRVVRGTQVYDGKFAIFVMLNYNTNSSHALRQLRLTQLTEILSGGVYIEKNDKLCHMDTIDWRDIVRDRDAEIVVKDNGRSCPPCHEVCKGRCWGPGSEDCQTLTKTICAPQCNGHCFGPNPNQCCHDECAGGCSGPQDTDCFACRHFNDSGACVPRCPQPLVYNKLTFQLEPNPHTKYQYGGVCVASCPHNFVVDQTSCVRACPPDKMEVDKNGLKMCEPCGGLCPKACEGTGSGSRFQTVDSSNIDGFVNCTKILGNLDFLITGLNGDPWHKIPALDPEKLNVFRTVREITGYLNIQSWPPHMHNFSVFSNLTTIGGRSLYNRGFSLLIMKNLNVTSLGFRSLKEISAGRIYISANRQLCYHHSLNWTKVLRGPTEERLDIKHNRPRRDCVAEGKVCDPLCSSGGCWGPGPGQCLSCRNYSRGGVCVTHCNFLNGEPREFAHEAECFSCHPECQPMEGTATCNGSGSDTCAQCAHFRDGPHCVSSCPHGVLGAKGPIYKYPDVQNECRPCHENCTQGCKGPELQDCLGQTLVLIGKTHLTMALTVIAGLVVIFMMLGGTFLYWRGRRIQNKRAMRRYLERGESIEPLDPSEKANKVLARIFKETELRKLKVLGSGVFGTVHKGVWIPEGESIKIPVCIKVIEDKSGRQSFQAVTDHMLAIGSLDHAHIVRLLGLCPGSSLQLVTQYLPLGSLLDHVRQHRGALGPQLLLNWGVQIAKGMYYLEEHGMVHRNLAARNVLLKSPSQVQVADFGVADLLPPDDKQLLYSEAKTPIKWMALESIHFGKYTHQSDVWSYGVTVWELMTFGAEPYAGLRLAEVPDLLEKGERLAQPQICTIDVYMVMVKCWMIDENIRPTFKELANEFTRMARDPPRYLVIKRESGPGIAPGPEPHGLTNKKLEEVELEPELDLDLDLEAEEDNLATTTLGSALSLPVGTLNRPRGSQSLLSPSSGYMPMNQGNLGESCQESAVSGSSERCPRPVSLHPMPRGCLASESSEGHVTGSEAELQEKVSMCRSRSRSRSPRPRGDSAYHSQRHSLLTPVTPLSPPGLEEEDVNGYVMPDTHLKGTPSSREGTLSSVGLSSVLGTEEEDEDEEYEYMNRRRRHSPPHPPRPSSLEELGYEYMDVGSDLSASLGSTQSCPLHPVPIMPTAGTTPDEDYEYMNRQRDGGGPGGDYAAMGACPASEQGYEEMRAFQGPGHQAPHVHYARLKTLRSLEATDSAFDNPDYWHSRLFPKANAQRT", "assay": "Selectivity interaction (Ambit KINOMEscan and KiNATiv profiling in Jurkat cells) EUB0000090b ERBB3", "assay_type": "cell-based", "settings": "at 1 µM"}, "[4]": {"molecular_target": "T1, Non-receptor tyrosine-protein kinase TNK1 (Homo sapiens) (UniProt Q13470)", "T1 sequence (whole entry)": "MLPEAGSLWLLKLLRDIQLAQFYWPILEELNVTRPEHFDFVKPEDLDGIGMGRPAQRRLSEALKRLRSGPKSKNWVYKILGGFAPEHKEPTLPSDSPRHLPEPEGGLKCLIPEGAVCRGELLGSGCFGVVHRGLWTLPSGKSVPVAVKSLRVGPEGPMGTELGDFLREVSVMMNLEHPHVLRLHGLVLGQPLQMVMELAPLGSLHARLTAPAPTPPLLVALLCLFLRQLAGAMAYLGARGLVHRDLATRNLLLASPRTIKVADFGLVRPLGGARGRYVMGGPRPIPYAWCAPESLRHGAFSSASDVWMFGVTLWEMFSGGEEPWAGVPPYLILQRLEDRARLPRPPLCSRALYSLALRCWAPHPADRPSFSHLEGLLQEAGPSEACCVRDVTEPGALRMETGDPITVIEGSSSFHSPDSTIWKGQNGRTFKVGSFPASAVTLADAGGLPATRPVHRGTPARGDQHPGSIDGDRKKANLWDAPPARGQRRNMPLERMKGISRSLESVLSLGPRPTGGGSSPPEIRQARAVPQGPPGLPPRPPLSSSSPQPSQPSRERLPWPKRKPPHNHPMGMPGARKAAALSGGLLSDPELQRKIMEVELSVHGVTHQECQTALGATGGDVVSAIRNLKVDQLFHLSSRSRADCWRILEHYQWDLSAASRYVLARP", "assay": "Selectivity interaction (Kinase panel (Carna Biosciences)) EUB0001542aTs TNK1", "settings": "at 1 µM"}, "[5]": {"molecular_target": "Citron Rho-interacting kinase (Homo sapiens) (UniProt O14578)", "sequence (O14578 whole entry)": "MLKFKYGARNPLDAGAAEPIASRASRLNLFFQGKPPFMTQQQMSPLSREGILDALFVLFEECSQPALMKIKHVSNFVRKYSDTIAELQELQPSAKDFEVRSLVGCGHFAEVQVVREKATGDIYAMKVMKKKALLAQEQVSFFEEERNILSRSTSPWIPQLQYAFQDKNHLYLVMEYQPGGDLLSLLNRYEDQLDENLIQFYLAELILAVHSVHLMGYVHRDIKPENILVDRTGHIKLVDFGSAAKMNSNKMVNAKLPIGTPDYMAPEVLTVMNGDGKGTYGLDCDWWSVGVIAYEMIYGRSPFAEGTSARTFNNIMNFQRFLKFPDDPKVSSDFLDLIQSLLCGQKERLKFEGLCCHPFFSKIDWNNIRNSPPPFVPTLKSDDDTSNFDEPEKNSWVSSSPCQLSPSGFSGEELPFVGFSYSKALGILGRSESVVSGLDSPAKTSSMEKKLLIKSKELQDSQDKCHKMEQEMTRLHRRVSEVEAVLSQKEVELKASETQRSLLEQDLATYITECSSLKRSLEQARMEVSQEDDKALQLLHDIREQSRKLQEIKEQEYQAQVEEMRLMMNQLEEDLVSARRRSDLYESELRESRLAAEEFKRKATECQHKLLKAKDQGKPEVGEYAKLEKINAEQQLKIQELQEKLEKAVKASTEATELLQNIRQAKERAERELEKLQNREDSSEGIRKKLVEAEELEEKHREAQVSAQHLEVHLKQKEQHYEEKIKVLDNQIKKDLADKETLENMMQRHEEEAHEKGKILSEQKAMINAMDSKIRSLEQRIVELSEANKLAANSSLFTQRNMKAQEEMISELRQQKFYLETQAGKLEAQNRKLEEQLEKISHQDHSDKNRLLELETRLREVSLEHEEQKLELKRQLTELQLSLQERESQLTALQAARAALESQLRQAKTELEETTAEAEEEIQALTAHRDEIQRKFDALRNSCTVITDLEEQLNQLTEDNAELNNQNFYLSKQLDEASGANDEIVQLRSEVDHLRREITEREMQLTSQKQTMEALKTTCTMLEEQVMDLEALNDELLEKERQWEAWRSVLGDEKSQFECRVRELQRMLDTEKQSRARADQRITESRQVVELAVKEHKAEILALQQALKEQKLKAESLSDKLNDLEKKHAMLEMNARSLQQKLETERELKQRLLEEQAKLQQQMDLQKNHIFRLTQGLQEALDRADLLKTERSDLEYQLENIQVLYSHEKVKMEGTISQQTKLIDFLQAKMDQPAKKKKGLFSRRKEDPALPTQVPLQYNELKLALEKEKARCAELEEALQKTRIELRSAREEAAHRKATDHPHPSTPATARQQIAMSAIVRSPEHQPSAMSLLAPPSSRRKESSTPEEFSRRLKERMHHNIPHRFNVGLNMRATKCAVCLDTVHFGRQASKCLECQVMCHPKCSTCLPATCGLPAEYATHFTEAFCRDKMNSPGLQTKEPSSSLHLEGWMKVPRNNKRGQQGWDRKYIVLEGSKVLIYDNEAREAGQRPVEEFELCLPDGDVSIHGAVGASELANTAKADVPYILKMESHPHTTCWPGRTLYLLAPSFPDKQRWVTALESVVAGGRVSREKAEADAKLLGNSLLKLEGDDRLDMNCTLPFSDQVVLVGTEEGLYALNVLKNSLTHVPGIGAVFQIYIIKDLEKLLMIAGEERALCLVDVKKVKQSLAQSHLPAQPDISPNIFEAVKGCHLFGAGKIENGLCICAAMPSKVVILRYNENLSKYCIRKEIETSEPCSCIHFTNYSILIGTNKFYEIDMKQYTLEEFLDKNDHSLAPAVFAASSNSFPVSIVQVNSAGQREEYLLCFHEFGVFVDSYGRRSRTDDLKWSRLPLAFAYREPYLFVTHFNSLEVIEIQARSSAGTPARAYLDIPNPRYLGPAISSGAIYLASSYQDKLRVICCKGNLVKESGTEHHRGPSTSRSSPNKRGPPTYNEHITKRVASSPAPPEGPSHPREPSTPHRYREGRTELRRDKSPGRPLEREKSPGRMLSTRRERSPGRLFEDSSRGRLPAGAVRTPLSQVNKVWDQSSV", "assay": "Selectivity interaction (KinomeScan (DiscoverX)) EUB0000595a CIT", "settings": "at 10 µM"}, "[6]": {"molecular_target": "Cyclin-dependent kinase 17 (Homo sapiens) (UniProt Q00537)", "assay": "Selectivity interaction (KinomeScan (DiscoverX)) EUB0000229b CDK17", "settings": "at 10 µM"}, "[7]": {"molecular_target": "T2, Interleukin-1 receptor-associated kinase 3 (Homo sapiens) (UniProt Q9Y616)", "T2 sequence (whole entry)": "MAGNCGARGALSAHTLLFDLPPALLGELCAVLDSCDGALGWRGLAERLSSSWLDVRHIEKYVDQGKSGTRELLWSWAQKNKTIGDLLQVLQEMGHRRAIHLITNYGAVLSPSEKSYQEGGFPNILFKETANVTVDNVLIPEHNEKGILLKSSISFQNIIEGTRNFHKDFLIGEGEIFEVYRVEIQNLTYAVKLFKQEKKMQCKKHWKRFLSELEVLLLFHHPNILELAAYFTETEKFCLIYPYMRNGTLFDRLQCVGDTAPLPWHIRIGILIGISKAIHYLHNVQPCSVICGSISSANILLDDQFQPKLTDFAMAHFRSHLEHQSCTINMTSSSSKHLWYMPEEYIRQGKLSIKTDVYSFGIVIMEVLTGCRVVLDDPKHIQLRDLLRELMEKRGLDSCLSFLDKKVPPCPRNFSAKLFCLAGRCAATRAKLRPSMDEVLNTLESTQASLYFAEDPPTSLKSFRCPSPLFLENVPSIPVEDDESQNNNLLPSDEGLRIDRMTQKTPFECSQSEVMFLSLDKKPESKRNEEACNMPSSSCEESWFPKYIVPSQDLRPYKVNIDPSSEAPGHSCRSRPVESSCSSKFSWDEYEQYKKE", "assay": "Selectivity interaction (KinomeScan (DiscoverX)) EUB0001079a IRAK3", "settings": "at 1 µM"}, "[8]": {"molecular_target": "T3, Ankyrin repeat and protein kinase domain-containing protein 1 (Homo sapiens) (UniProt Q8NFD2)", "T3 sequence (whole entry)": "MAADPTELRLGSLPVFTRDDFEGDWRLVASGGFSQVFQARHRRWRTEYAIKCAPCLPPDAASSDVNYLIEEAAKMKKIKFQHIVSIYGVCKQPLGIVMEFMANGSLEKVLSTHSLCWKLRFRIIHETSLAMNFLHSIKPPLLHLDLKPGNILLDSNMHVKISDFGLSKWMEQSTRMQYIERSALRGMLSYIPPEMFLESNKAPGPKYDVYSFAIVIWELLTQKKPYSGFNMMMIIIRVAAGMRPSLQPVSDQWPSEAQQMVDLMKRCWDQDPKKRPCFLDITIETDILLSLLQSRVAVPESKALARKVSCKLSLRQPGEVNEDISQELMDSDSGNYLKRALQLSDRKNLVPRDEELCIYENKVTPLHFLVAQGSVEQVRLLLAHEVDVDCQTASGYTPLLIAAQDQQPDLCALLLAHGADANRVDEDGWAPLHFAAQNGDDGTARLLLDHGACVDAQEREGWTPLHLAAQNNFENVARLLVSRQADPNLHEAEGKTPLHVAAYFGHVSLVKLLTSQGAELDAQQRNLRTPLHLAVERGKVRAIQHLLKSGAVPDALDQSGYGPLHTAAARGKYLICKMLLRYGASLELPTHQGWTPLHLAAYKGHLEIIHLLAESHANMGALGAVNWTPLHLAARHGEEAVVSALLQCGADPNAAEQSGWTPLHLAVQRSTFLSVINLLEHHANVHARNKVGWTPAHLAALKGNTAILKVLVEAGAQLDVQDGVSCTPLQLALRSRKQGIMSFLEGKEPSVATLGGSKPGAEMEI", "assay": "Selectivity interaction (KinomeScan (DiscoverX)) EUB0000045b ANKK1"}, "[9]": {"molecular_target": "Casein kinase I isoform alpha (Homo sapiens, UniProt P48729)", "assay": "Selectivity interaction (KinomeScan (DiscoverX)) EUB0001619a CSNK1A1", "settings": "at 1 µM"}, "[10]": {"molecular_target": "5'-AMP-activated protein kinase catalytic subunit alpha-2 (Homo sapiens) (UniProt P54646)", "sequence (P54646 whole entry, looked up)": "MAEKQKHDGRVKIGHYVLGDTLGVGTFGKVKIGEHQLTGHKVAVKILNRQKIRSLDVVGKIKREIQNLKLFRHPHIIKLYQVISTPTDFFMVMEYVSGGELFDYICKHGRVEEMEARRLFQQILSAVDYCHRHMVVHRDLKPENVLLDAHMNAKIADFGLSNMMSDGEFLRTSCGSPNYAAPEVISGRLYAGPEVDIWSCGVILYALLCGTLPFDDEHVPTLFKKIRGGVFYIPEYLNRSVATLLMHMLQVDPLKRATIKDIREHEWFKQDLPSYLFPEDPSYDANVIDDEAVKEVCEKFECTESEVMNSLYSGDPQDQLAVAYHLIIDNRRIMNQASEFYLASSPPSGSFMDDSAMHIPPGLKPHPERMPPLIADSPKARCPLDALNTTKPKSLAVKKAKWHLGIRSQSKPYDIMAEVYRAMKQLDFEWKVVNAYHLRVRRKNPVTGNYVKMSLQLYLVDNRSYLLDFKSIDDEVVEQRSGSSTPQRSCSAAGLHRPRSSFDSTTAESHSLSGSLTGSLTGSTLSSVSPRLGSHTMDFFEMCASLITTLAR", "assay": "Selectivity interaction (Kinase panel (KiNativ target engagement assay in Jurkat cells)) EUB0001635a PRKAA2", "assay_type": "cell-based", "settings": "at 1 µM"}, "[11]": {"molecular_target": "T4, Aurora kinase C (Homo sapiens) (UniProt Q9UQB9)", "T4 sequence (whole entry)": "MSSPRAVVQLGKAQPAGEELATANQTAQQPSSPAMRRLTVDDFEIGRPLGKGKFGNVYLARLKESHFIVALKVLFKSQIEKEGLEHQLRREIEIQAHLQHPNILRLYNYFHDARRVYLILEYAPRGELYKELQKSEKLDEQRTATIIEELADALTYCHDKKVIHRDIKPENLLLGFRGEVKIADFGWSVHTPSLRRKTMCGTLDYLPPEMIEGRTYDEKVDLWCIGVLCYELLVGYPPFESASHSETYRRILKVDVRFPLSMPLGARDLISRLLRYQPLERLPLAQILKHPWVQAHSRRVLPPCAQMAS", "assay": "Selectivity interaction (KinomeScan (DiscoverX)) EUB0000666a AURKC", "settings": "at 10 µM"}},
  "data": [
    {"smiles": "COc1cc(Nc2nc(C)cc(-c3cnn4nc(OC)ccc34)n2)cc(C(F)(F)F)c1", "values": [
      {"measurement": "% of control", "setting": "[1]", "value": 90, "unit": "%"},
      {"measurement": "% of control", "setting": "[2]", "value": 93, "unit": "%"}
    ]},
    {"smiles": "CN(C)C/C=C/C(=O)Nc1ccc(C(=O)N2CCCC(Nc3ncc(Cl)c(-c4c[nH]c5ccccc45)n3)C2)cc1", "note": "(configuration not stated)", "values": [
      {"measurement": "% of control", "setting": "[3]", "value": 98, "unit": "%"}
    ]},
    {"smiles": "Cn1cc(Nc2nccc(N3CC4CCC(C3)N4C(=O)[C@@H]3CC3(F)F)n2)cn1", "values": [
      {"measurement": "% of inhibition", "setting": "[4]", "value": 94, "unit": "%"}
    ]},
    {"smiles": "COCC(=O)NC/C=C/c1ccc2ncnc(Nc3ccc(Oc4ccc(C)nc4)c(C)c3)c2c1", "note": "[CP-724714]", "values": [
      {"measurement": "% of control", "setting": "[5]", "value": 76, "unit": "%"}
    ]},
    {"smiles": "COc1cc(N(C)c2ccnc3ccc(C(F)(F)F)cc23)cc(OC)c1OC", "values": [
      {"measurement": "% binding", "setting": "[6]", "value": 88, "unit": "%"}
    ]},
    {"smiles": "Nc1cnc(N2CCc3cc(S(=O)(=O)Nc4c(F)cc(Cl)cc4F)cc(N4CCCC4=O)c32)nc1", "note": "[TP-020n]", "values": [
      {"measurement": "% of control", "setting": "[7]", "value": 89, "unit": "%"}
    ]},
    {"smiles": "C=CC(=O)Nc1cc(-n2c(=O)ccc3cnc4ccc(-c5ccc(NS(C)(=O)=O)cc5)cc4c32)ccc1C", "values": [
      {"measurement": "% of control", "setting": "[8]; at 1 µM", "value": 100, "unit": "%"},
      {"measurement": "% of control", "setting": "[8]; at 10 µM", "value": 77, "unit": "%"}
    ]},
    {"smiles": "N#Cc1cccc(-c2c[nH]c3ncnc(N4CCOCC4)c23)c1", "values": [
      {"measurement": "% of control", "setting": "[9]", "value": 100, "unit": "%"}
    ]},
    {"smiles": "C=CC(=O)Nc1ccc(C(=O)Nc2[nH]nc3c2CN(C(=O)N[C@H](CN(C)C)c2ccccc2)C3(C)C)cc1", "values": [
      {"measurement": "% of engagement", "setting": "[10]", "value": 53.5, "unit": "%"}
    ]},
    {"smiles": "O=C(NOC[C@H](O)CO)c1ccc(F)c(F)c1Nc1ccc(I)cc1F", "values": [
      {"measurement": "% of control", "setting": "[11]", "value": 45, "unit": "%"}
    ]}
  ]
}
